# Measurements taken from publication PMC10714399, “Open Source Antibiotics: Simple Diarylimidazoles Are Potent against Methicillin-Resistant Staphylococcus aureus” (ACS Infectious Diseases, 2023).
# Assays:
# [1] = test system: HEK293 cells; assay: HEK293 toxicity, 96-well dose-response (UCL; MTT or resazurin, with or without recovery); format: cell-based, human; settings: 32 μg/mL
# In short: (§1)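 HEK293 cells seeded 48 h beforehand (700 cells for recovery runs, 5000 for non-recovery), then exposed 24 h to 2-fold dilutions from 32 μg/mL down to […] (1% DMSO top). Viability read by MTT or resazurin, either immediately or after 72 h recovery; Dmax = 100 − viability% at 32 μg/mL.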
# [2] = Human liver microsome intrinsic clearance; format: in vitro ADME; settings: human liver microsomes, NEU
# [3] = HEK293 toxicity, 96-well dose-response (UCL; MTT or resazurin, with or without recovery); format: cell-based, human; settings: human, HEK293 cells; read-out: HEK293 CC50
# In short: as §1
Compound,spread of Dmax values comparing recovery and non-recovery conditions [1],microsomal CLint ([2]; read-out: HLM CLint (NEU)) [µL/min/mg],CC50 at 24 h [3] [µg/mL],HLM CLint (NEU) [2] [uL/min/mg protein]
c1ccc(-c2nc3n(c2-c2ccc4sccc4c2)CCC3)nc1 [compound 822],small difference,–,–,–
c1ccc(-c2nc3n(c2-c2ccc4occc4c2)CCC3)nc1 [compound 821],small difference,63.5,1.7,–
c1ccc(-c2nc3n(c2-c2ccc4sccc4c2)CCC3)nc1 [OSA_000822],–,–,2.9,61.5
